Key:
[1] = system: SirT1 protein in N2a-E4 cells; test: SirT1 protein levels in N2a-E4 cells (AlphaLISA); type: cell-based, murine
Description: Relative SirT1 mRNA and protein enhancement by racemate DDL-214 and enantiomers DDL-218 and − 219 was determined in murine neuroblastoma cells stably transfected with ApoE4 (N2a-E4)[25]. All test compounds in DMSO were prepared at 2x the final concentration in DMEM supplemented with 10% fetal bovine serum (FBS) and 1% pen-strep (PS) and 50 µL of each loaded into individual wells of a 96-well plate. Previously cultured N2a-E4 were then trypsinized, harvested, centrifuged, and counted; then 50 µL of cell suspension adjusted to 400 cells/µL was added to each well. The plate was then incubated at 37 °C, 5% CO2 for 48 h. Cells were treated with DDL-214, DDL-218, or DDL-219 at 5 µM final then incubated for 24 h. After incubation, the cells were lysed with 50 µL of ice-cold lysis buffer (0.4% SDS, 3.5% Triton X-100, 0.02% sodium deoxycholate, 28 mM TRIS pH 8) complemented with 1X final Halt™ Protease and Phosphatase Inhibitor Cocktail (Thermo Fisher catalog # 78442), placed on ice for 10 min and at -80 °C, followed by 3 freeze/thaw cycles.
An AlphaLISA comprising streptavidin donor beads (Revvity catalog # 6760002 S), biotinylated anti-SirT1 N-terminal antibody (monoclonal 19A7AB4, Abcam catalog # ab110304), and acceptor beads (Revvity catalog # 6772001) conjugated to the anti-SirT1 C-terminal antibody (monoclonal 1F3, Abcam catalog # ab104833) was used to determine SirT1 protein levels. […] The plates were read using an Envision plate reader.
Figure S3B. […] Compound treatment was done at 5 and 50 µM. SirT1 levels were measured by AlphaLISA followed and normalized to protein […]
Brain tissue was homogenized in PBS (pH 7.4) (1: 3 weight(mg)/volume(µL)) and the protein concentration of was determined using the Micro BCA™ Protein Assay Kit (Thermo Fisher Scientific, Cat#23235). […]
The % of the unbound drug (fu,bound) was calculated using the following equation: fu,bound = [normalized peak area in buffer side / normalized peak area in brain side] x 100 Liver Microsome Stability [t1/2 (min)] […]

SirT1 mRNA = test: Hippocampal SirT1 mRNA in ApoE4-TR:5xFAD mice; type: in vivo; details: 20 mg/Kg BID, 56 days, vs vehicle
Description: The active (-) enantiomer, DDL-218, underwent efficacy testing in ApoE4-TR:5xFAD mice[27] that were 6-7.5 months old at the start of treatment. ApoE4-TR:5xFAD male and female mice received either 20 mg/Kg DDL-218 BID (~ 8- to10-hour interval; total daily dose of 40 mkd) on weekdays and a single 40 mg/Kg dose on weekends (n = 12) or vehicle-only (n = 11); 8 C57BL/6 mice received vehicle-only as behavioral controls. Dosing was by the oral route and by oral feeding using a pipette as previously described, not gavage, as it is safer for repeated oral dosing than gavage. The dose of 20 mg/kg BID (40 mkd) was selected based on findings from PK analysis and was the highest feasible in the formulation used for oral feeding (compound is first solubilized in water, then mixed strawberry syrup diluted in water, for a final vehicle that is 25% syrup and 75% water). […]
Total RNA was isolated from cells or brain tissue (Qiagen RNEasy kit). Total RNA (0.5–1.0 µg) mRNA was then converted to cDNA (SuperScript™ III First-Strand Synthesis SuperMix kit; Thermo Fisher), and gene mRNA levels were measured using a gene-specific qRT-PCR Taqman assays (Thermo Fisher). Gene mRNA levels were normalized to GAPDH mRNA levels measured either in the same cDNA sample or in the same qPCR reaction using multiplexing of gene-of-interest/VIC and GAPDH/FAM, normalized by the delta-delta-Ct method.

SirT1 protein = SirT1 protein levels in hippocampi of ApoE4-TR:5xFAD mice; type: in vivo; details: 56 days, vs vehicle, not statistically significant
Description: The active (-) enantiomer, DDL-218, underwent efficacy testing in ApoE4-TR:5xFAD mice[27] that were 6-7.5 months old at the start of treatment. ApoE4-TR:5xFAD male and female mice received either 20 mg/Kg DDL-218 BID (~ 8- to10-hour interval; total daily dose of 40 mkd) on weekdays and a single 40 mg/Kg dose on weekends (n = 12) or vehicle-only (n = 11); 8 C57BL/6 mice received vehicle-only as behavioral controls. Dosing was by the oral route and by oral feeding using a pipette as previously described, not gavage, as it is safer for repeated oral dosing than gavage. The dose of 20 mg/kg BID (40 mkd) was selected based on findings from PK analysis and was the highest feasible in the formulation used for oral feeding (compound is first solubilized in water, then mixed strawberry syrup diluted in water, for a final vehicle that is 25% syrup and 75% water). The final concentration of DDL-218 was chosen to deliver 20 mg/Kg in a volume of 10–20 µL (adjusted to the weight of each mouse). Mice were treated for 56 days (8 weeks); in week 7, mice underwent Barnes maze testing[29] as described below.
On Day 56, mice were euthanized 2 h after the a.m. dose by pentobarbital over-anesthesia and cardiac puncture for the collection of blood in EDTA tubes on ice for the isolation of plasma by centrifugation at 3,000 x g for 10 min at 4 °C. Mice were perfused with saline at 5 ml/min. […]

Row | Structure (SMILES) | SirT1 increase over vehicle ([1]; 50 uM in N2a-E4 cells) | hippocampal SirT1 mRNA (SirT1 mRNA) | increase of mean SirT1 protein levels in hippocampi (SirT1 protein) | SirT1 protein levels ([1]; N2a-E4 cells, 5 µM, 24 h, vs DMSO control)
1 | C#Cc1ccc(CC(C)(C)NC(=O)[C@H](C)N)cc1 [DDL-220] | 30% |  |  | 
2 | CC(N)C(=O)OC(C)(C)Cc1ccncc1 (stereo not shown) [DDL-218] |  | significantly increased | ~ 20% | greatest increase in SirT1 protein

— publication PMC12019328, “Discovery of an ApoE4-targeted small-molecule SirT1 enhancer for the treatment of Alzheimer’s disease” (Scientific Reports, 2025)
